Data on twelve compounds can be found in patent US20260070945A1, “MACROCYCLIC IMMUNOMODULATORS” (Bristol-Myers Squibb Company, priority 2022, published 2026).

Where a SMILES comes first, the peptide text is derived from it. Bridges are numbered along the chain shown (N, C = ends). [ ]: non-standard residue; d: D form. The star is where a group is joined. Phe(3-CF3) = N[C@@H](Cc1cccc(C(F)(F)F)c1)C(=O)O; Ala(morpholin-4-yl) = N[C@@H](CN1CCOCC1)C(=O)O; Phe(4-COOH) = N[C@@H](Cc1ccc(C(=O)O)cc1)C(=O)O; Bip = N[C@@H](Cc1ccc(-c2ccccc2)cc1)C(=O)O; NH(CH2)12COOH = O=C(O)CCCCCCCCCCCCN*; Val(3-OH) = CC(C)(O)[C@H](N)C(=O)O; Cha = N[C@@H](CC1CCCCC1)C(=O)O; Cit = NC(=O)NCCC[C@H](N)C(=O)O; Carboxymethyl = O=C(O)C*; NMeA = CN[C@@H](C)C(=O)O; Dab = NCC[C@H](N)C(=O)O

In this experiment the target is T1, PD-1/PD-L1 interaction (PE-labeled human PD-L1-Ig binding to Jurkat cell line over-expressing human PD-1) (Homo sapiens, UniProt Q15116).
T1 construct: expressed in transfected cells; host or cells: Jurkat
T1 sequence (Q15116 25-288): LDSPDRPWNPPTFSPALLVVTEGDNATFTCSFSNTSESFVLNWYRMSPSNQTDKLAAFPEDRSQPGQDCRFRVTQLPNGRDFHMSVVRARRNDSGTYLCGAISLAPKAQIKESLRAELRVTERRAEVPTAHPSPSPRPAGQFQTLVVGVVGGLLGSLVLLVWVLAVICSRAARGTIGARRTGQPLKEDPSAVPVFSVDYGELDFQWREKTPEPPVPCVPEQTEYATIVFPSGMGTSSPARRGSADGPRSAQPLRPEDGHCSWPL
Briefly: Jurkat-PD-1 Cell Binding High-Content Screening Assay (CBA). To be noted: Jurkat-hPD-1 cells, PE-labeled PD-L1-Ig 20 nM final; read-out: Jurkat HPD1 PDL1 IC50. The procedure, abridged:
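Binding of 20 nM (final) PE-tagged PD-L1-Ig to compound-pretreated Jurkat-hPD-1 cells was measured by high-content imaging after 1 h. Pretreatment ran 2 h at 37 °C in DMEM with 10% fetal calf serum.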
Usually IC50 stands for the concentration needed to halve the response being measured. As to `COC[C@@H]1NC(=O)CSC[C@@H](C(=O)N[C@@H](CCN)C(=O)NCCCCCCCCCCCCC(=O)O)NC(=O)[C@H](CO)NC(=O)[C@H](C(C)(C)O)NC(=O)[C@H](CC2CCCCC2)NC(=O)[C@H](CCN)NC(=O)[C@@H](CC(C)C)NC(=O)[C@H](C)N(C)C(=O)[C@H](CCCNC(N)=O)NC(=O)[C@H](Cc2ccc(-c3ccccc3)cc2)NC(=O)[C@H](Cc2ccc(C(=O)O)cc2)NC(=O)[C@H](Cc2cccc(C(F)(F)F)c2)NC(=O)[C@H](CC(=O)O)NC(=O)[C@H](Cc2ccc(OCC(=O)O)cc2)NC1=O` [Example 1140] ({CH2CO}-S(Me)Y(Carboxymethyl)D[Phe(3-CF3)][Phe(4-COOH)][Bip][Cit][NMeA][dL][Dab][Cha][Val(3-OH)]SC[Dab]-{NH(CH2)12COOH}; thioether N-14), the IC50 worked out at 25.4 nM.
Turning to `COC[C@@H]1NC(=O)CSC[C@@H](C(=O)N[C@@H](CCN)C(=O)NCCCCCCCCCCCCC(=O)O)NC(=O)[C@H](Cc2c[nH]cn2)NC(=O)[C@H](C(C)(C)O)NC(=O)[C@H](CC2CCCCC2)NC(=O)[C@H](CCN)NC(=O)[C@@H](CC(C)C)NC(=O)[C@H](C)N(C)C(=O)[C@H](CCCNC(N)=O)NC(=O)[C@H](Cc2ccc(-c3ccccc3)cc2)NC(=O)[C@H](Cc2ccc(C(=O)O)cc2)NC(=O)[C@H](Cc2cccc(C(F)(F)F)c2)NC(=O)[C@H](CC(=O)O)NC(=O)[C@H](Cc2ccc(OCC(=O)O)cc2)NC1=O` [Example 1141] ({CH2CO}-S(Me)Y(Carboxymethyl)D[Phe(3-CF3)][Phe(4-COOH)][Bip][Cit][NMeA][dL][Dab][Cha][Val(3-OH)]HC[Dab]-{NH(CH2)12COOH}; thioether N-14), the IC50 amounted to 18.2 nM.
`CC(C)C[C@H]1NC(=O)[C@H](C)N(C)C(=O)[C@H](CCC(N)=O)NC(=O)[C@H](Cc2ccc(-c3ccccc3)cc2)NC(=O)[C@H](Cc2ccc(C(=O)O)cc2)NC(=O)[C@H](Cc2cccc(C(F)(F)F)c2)NC(=O)[C@H](CC(=O)O)NC(=O)[C@H](Cc2ccc(OCC(=O)O)cc2)NC(=O)[C@H](Cc2ccc(C(=O)O)cc2)NC(=O)CSC[C@@H](C(=O)N[C@@H](CCN)C(=O)NCCCCCCCCCCCCC(=O)O)NC(=O)[C@H](CC(=O)O)NC(=O)[C@H](C(C)(C)O)NC(=O)[C@H](CC2CCCCC2)NC(=O)[C@H](CCN)NC1=O` [Example 1142] ({CH2CO}-[Phe(4-COOH)]Y(Carboxymethyl)D[Phe(3-CF3)][Phe(4-COOH)][Bip]Q[NMeA][dL][Dab][Cha][Val(3-OH)]DC[Dab]-{NH(CH2)12COOH}; thioether N-14): the IC50 stood at 24.8 nM.
Take `CC(C)C[C@H]1NC(=O)[C@H](C)N(C)C(=O)[C@H](CCC(N)=O)NC(=O)[C@H](Cc2ccc(-c3ccccc3)cc2)NC(=O)[C@H](Cc2ccc(C(=O)O)cc2)NC(=O)[C@H](Cc2cccc(C(F)(F)F)c2)NC(=O)[C@H](CC(=O)O)NC(=O)[C@H](Cc2ccc(OCC(=O)O)cc2)NC(=O)[C@H](Cc2ccc(C(=O)O)cc2)NC(=O)CSC[C@@H](C(=O)N[C@@H](CCN)C(=O)NCCCCCCCCCCCCC(=O)O)NC(=O)[C@H](CCC(=O)O)NC(=O)[C@H](C(C)C)NC(=O)[C@H](CC2CCCCC2)NC(=O)[C@H](CCN)NC1=O` [Example 1143] ({CH2CO}-[Phe(4-COOH)]Y(Carboxymethyl)D[Phe(3-CF3)][Phe(4-COOH)][Bip]Q[NMeA][dL][Dab][Cha]VEC[Dab]-{NH(CH2)12COOH}; thioether N-14): the IC50 was 21.4 nM.
With `CC(C)C[C@H]1NC(=O)[C@H](C)N(C)C(=O)[C@H](CCC(N)=O)NC(=O)[C@H](Cc2ccc(-c3ccccc3)cc2)NC(=O)[C@H](Cc2ccc(C(=O)O)cc2)NC(=O)[C@H](Cc2cccc(C(F)(F)F)c2)NC(=O)[C@H](CC(=O)O)NC(=O)[C@H](Cc2ccc(OCC(=O)O)cc2)NC(=O)[C@H](Cc2ccc(C(=O)O)cc2)NC(=O)CSC[C@@H](C(=O)N[C@@H](CCN)C(=O)NCCCCCCCCCCCCC(=O)O)NC(=O)[C@H](CO)NC(=O)[C@H](C(C)(C)O)NC(=O)[C@H](CC2CCCCC2)NC(=O)[C@H](CCN)NC1=O` [Example 1144] ({CH2CO}-[Phe(4-COOH)]Y(Carboxymethyl)D[Phe(3-CF3)][Phe(4-COOH)][Bip]Q[NMeA][dL][Dab][Cha][Val(3-OH)]SC[Dab]-{NH(CH2)12COOH}; thioether N-14), the IC50 came to 14 nM.
Take `CC(C)C[C@H]1NC(=O)[C@H](C)N(C)C(=O)[C@H](CCC(N)=O)NC(=O)[C@H](Cc2ccc(-c3ccccc3)cc2)NC(=O)[C@H](Cc2ccc(C(=O)O)cc2)NC(=O)[C@H](Cc2cccc(C(F)(F)F)c2)NC(=O)[C@H](CC(=O)O)NC(=O)[C@H](Cc2ccc(OCC(=O)O)cc2)NC(=O)[C@H](Cc2ccc(C(=O)O)cc2)NC(=O)CSC[C@@H](C(=O)N[C@@H](CCN)C(=O)NCCCCCCCCCCCCC(=O)O)NC(=O)[C@H](Cc2c[nH]cn2)NC(=O)[C@H](C(C)(C)O)NC(=O)[C@H](CC2CCCCC2)NC(=O)[C@H](CCN)NC1=O` [Example 1145] ({CH2CO}-[Phe(4-COOH)]Y(Carboxymethyl)D[Phe(3-CF3)][Phe(4-COOH)][Bip]Q[NMeA][dL][Dab][Cha][Val(3-OH)]HC[Dab]-{NH(CH2)12COOH}; thioether N-14): the IC50 is 11.2 nM.
Next, `CC(C)C[C@H]1NC(=O)[C@H](C)N(C)C(=O)[C@H](CCCNC(N)=O)NC(=O)[C@H](Cc2ccc(-c3ccccc3)cc2)NC(=O)[C@H](Cc2ccc(C(=O)O)cc2)NC(=O)[C@H](Cc2cccc(C(F)(F)F)c2)NC(=O)[C@H](CC(=O)O)NC(=O)[C@H](Cc2ccc(OCC(=O)O)cc2)NC(=O)[C@H](Cc2ccc(C(=O)O)cc2)NC(=O)CSC[C@@H](C(=O)N[C@@H](CCN)C(=O)NCCCCCCCCCCCCC(=O)O)NC(=O)[C@H](CC(=O)O)NC(=O)[C@H](C(C)(C)O)NC(=O)[C@H](CC2CCCCC2)NC(=O)[C@H](CCN)NC1=O` [Example 1146] ({CH2CO}-[Phe(4-COOH)]Y(Carboxymethyl)D[Phe(3-CF3)][Phe(4-COOH)][Bip][Cit][NMeA][dL][Dab][Cha][Val(3-OH)]DC[Dab]-{NH(CH2)12COOH}; thioether N-14): 13.7 nM; `CC(C)C[C@H]1NC(=O)[C@H](C)N(C)C(=O)[C@H](CCCNC(N)=O)NC(=O)[C@H](Cc2ccc(-c3ccccc3)cc2)NC(=O)[C@H](Cc2ccc(C(=O)O)cc2)NC(=O)[C@H](Cc2cccc(C(F)(F)F)c2)NC(=O)[C@H](CC(=O)O)NC(=O)[C@H](Cc2ccc(OCC(=O)O)cc2)NC(=O)[C@H](Cc2ccc(C(=O)O)cc2)NC(=O)CSC[C@@H](C(=O)N[C@@H](CCN)C(=O)NCCCCCCCCCCCCC(=O)O)NC(=O)[C@H](CCC(=O)O)NC(=O)[C@H](C(C)C)NC(=O)[C@H](CC2CCCCC2)NC(=O)[C@H](CCN)NC1=O` [Example 1147] ({CH2CO}-[Phe(4-COOH)]Y(Carboxymethyl)D[Phe(3-CF3)][Phe(4-COOH)][Bip][Cit][NMeA][dL][Dab][Cha]VEC[Dab]-{NH(CH2)12COOH}; thioether N-14): 13.2 nM.
As for `CC(C)C[C@H]1NC(=O)[C@H](C)N(C)C(=O)[C@H](CCCNC(N)=O)NC(=O)[C@H](Cc2ccc(-c3ccccc3)cc2)NC(=O)[C@H](Cc2ccc(C(=O)O)cc2)NC(=O)[C@H](Cc2cccc(C(F)(F)F)c2)NC(=O)[C@H](CC(=O)O)NC(=O)[C@H](Cc2ccc(OCC(=O)O)cc2)NC(=O)[C@H](Cc2ccc(C(=O)O)cc2)NC(=O)CSC[C@@H](C(=O)N[C@@H](CCN)C(=O)NCCCCCCCCCCCCC(=O)O)NC(=O)[C@H](CO)NC(=O)[C@H](C(C)(C)O)NC(=O)[C@H](CC2CCCCC2)NC(=O)[C@H](CCN)NC1=O` [Example 1148] ({CH2CO}-[Phe(4-COOH)]Y(Carboxymethyl)D[Phe(3-CF3)][Phe(4-COOH)][Bip][Cit][NMeA][dL][Dab][Cha][Val(3-OH)]SC[Dab]-{NH(CH2)12COOH}; thioether N-14), the IC50 turned out to be 17.8 nM.
In the case of `CC(C)C[C@H]1NC(=O)[C@H](C)N(C)C(=O)[C@H](CCCNC(N)=O)NC(=O)[C@H](Cc2ccc(-c3ccccc3)cc2)NC(=O)[C@H](Cc2ccc(C(=O)O)cc2)NC(=O)[C@H](Cc2cccc(C(F)(F)F)c2)NC(=O)[C@H](CC(=O)O)NC(=O)[C@H](Cc2ccc(OCC(=O)O)cc2)NC(=O)[C@H](Cc2ccc(C(=O)O)cc2)NC(=O)CSC[C@@H](C(=O)N[C@@H](CCN)C(=O)NCCCCCCCCCCCCC(=O)O)NC(=O)[C@H](Cc2c[nH]cn2)NC(=O)[C@H](C(C)(C)O)NC(=O)[C@H](CC2CCCCC2)NC(=O)[C@H](CCN)NC1=O` [Example 1149] ({CH2CO}-[Phe(4-COOH)]Y(Carboxymethyl)D[Phe(3-CF3)][Phe(4-COOH)][Bip][Cit][NMeA][dL][Dab][Cha][Val(3-OH)]HC[Dab]-{NH(CH2)12COOH}; thioether N-14), the IC50 amounted to 15.2 nM.
For `CC(C)C[C@H]1NC(=O)[C@H](C)N(C)C(=O)[C@H](CCC(N)=O)NC(=O)[C@H](Cc2ccc(-c3ccccc3)cc2)NC(=O)[C@H](Cc2ccc(C(=O)O)cc2)NC(=O)[C@H](Cc2cccc(C(F)(F)F)c2)NC(=O)[C@H](CC(=O)O)NC(=O)[C@H](Cc2ccc(OCC(=O)O)cc2)NC(=O)[C@H](CN2CCOCC2)NC(=O)CSC[C@@H](C(=O)N[C@@H](CCN)C(=O)NCCCCCCCCCCCCC(=O)O)NC(=O)[C@H](CC(=O)O)NC(=O)[C@H](C(C)(C)O)NC(=O)[C@H](CC2CCCCC2)NC(=O)[C@H](CCN)NC1=O` [Example 1150] ({CH2CO}-[Ala(morpholin-4-yl)]Y(Carboxymethyl)D[Phe(3-CF3)][Phe(4-COOH)][Bip]Q[NMeA][dL][Dab][Cha][Val(3-OH)]DC[Dab]-{NH(CH2)12COOH}; thioether N-14), the IC50 was found to be 16 nM.
For the compound `CC(C)C[C@H]1NC(=O)[C@H](C)N(C)C(=O)[C@H](CCC(N)=O)NC(=O)[C@H](Cc2ccc(-c3ccccc3)cc2)NC(=O)[C@H](Cc2ccc(C(=O)O)cc2)NC(=O)[C@H](Cc2cccc(C(F)(F)F)c2)NC(=O)[C@H](CC(=O)O)NC(=O)[C@H](Cc2ccc(OCC(=O)O)cc2)NC(=O)[C@H](CN2CCOCC2)NC(=O)CSC[C@@H](C(=O)N[C@@H](CCN)C(=O)NCCCCCCCCCCCCC(=O)O)NC(=O)[C@H](CCC(=O)O)NC(=O)[C@H](C(C)C)NC(=O)[C@H](CC2CCCCC2)NC(=O)[C@H](CCN)NC1=O` [Example 1151] ({CH2CO}-[Ala(morpholin-4-yl)]Y(Carboxymethyl)D[Phe(3-CF3)][Phe(4-COOH)][Bip]Q[NMeA][dL][Dab][Cha]VEC[Dab]-{NH(CH2)12COOH}; thioether N-14), the IC50 turned out to be 6.1 nM.
